Results: patent US4215110A, “Method of treating hypertension” (Merck & Co., Inc., priority 1978, dated 1980)

Test system: spontaneously hypertensive (SH) rats
Assay: antihypertensive activity test in spontaneously hypertensive (SH) rats
Format: in vivo, rat
Conditions: administered intraperitoneally
Experimental: The present tripeptides have antihypertensive activity. This antihypertensive activity was determined using a test procedure which involved administration of representative compounds to spontaneously hypertensive (SH) rats.

`NC(=O)[C@@H]1CCCN1C(=O)[C@H](Cc1c[nH]cn1)NC(=O)[C@@H]1CCC(=O)N1` [TRH, L-pyroglutamyl-L-histidyl-L-proline-amide] was tested. Which antihypertensive activity did it give?
The antihypertensive activity was “significant antihypertensive activity”.
